Measurements reported in PMC6017749, “Exploring N-acyl-4-azatetracyclo[5.3.2.0^2,6.0^8,10]dodec-11-enes as 11β-HSD1 Inhibitors” (Molecules : A Journal of Synthetic Chemistry and Natural …, 2018).
pIC50: −log10 of the molar value.

Legend:
human 11β-HSD1 [1] = target: T1, human 11β-HSD1 (Homo sapiens, UniProt P28845); assay: 11β-HSD1 enzyme inhibition assay in human liver microsomes (3H-cortisone to 3H-cortisol, SPA); assay type: biochemical; details: for inhibition at 10 µM: read-out: hHSD1 % inh at 10 µM; for pIC50: read-out: hHSD1 IC50
T1 construct: The assay uses human liver microsomes (HLM), where the enzyme is expressed; tissue Celsis In-vitro Technologies; host or cells: mixed sex human liver microsomes
T1 sequence (P28845 whole entry): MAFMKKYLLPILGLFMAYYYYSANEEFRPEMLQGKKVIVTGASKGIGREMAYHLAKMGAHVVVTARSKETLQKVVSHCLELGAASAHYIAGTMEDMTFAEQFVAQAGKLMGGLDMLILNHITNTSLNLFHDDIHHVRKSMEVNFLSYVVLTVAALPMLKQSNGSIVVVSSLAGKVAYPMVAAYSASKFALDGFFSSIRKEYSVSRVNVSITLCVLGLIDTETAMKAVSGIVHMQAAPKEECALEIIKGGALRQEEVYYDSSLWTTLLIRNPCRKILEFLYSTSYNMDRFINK
Experimental: A preliminary screen was performed using a human microsome assay with compounds at 10 µM in order to assess their potential inhibition of the target enzyme (Table 2). Percentage of inhibition was determined by measuring the conversion of ^3H-cortisone to ^3H-cortisol by capturing liberated ^3H-cortisol on anti-cortisol (HyTest Ltd., Turku, Finland)-coated scintillation proximity assay beads. The assay uses human liver microsomes (HLM), where the enzyme is expressed, and NADPH as the cofactor needed by the enzyme. Eight of the thirteen new compounds presented 100% inhibition of the human 11β-HSD1 in this single concentration assay, so dose-response curves were performed to get their IC50 values.
11β-HSD1 activity was determined in mixed sex, human liver microsomes (HLM, Celsis In-vitro Technologies) by measuring the conversion of ^3H-cortisone to ^3H-cortisol. Percentage inhibition was determined relative to a no inhibitor control. An amount of 5 μg of HLM were pre-incubated at 37 °C for 15 min with inhibitor and 1 mM NADPH in a final volume of 90 μL Krebs buffer. 10 μL of 200 nM ^3H-cortisone was then added followed by incubation at 37 °C for a further 30 min. The assay was terminated by rapid freezing on dry ice and ^3H-cortisone to ^3H-cortisol conversion determined in 50 μL of the defrosted reaction by capturing liberated ^3H-cortisol on anti-cortisol (HyTest Ltd)-coated scintillation proximity assay beads (protein A-coated YSi, GE Healthcare). Reported values are the average of 1–3 measurements. A nanomolar 11β-HSD1 inhibitor, UE2316, was added as a positive control within in each set of assays.

human 11β-HSD1 [2] = target: T1, human 11β-HSD1; assay: Cellular 11β-HSD1 enzyme inhibition assay (HEK293 stably transfected, cortisol by LC/MS); assay type: cell-based; details: for inhibition at 10 µM: HEK293 transfected with human 11β-HSD1, read-out: HEK hHSD1 % inh at 10 µM; for HEK hHSD1 % inh at 10 µM: HEK293 transfected with human 11β-HSD1
Experimental: Those compounds with submicromolar IC50 values (4, 6, 8, 9 and 16) were further evaluated in terms of cellular potency, selectivity over 11β-HSD2, and metabolic stability as follows (Table 2, 5th, 6th, and 7th column, respectively). Cellular potency was assessed using Human Embryonic Kidney 293 (HEK293) cells stably transfected with the 11β-HSD1 gene. Cells were incubated with substrate (cortisone) and percentage of inhibition was determined by measuring the conversion of cortisone to cortisol by LC/MS. The results were in line with the previous results obtained in the microsomal assay.
The cellular 11β-HSD1 enzyme inhibition assay was performed using HEK293 cells stably transfected with the human 11β-HSD1 gene. Cells were incubated with substrate (cortisone) and product (cortisol) was determined by LC/MS. Cells were plated at 2 × 10^4 cells/well in a 96-well poly-D-lysine coated tissue culture microplate (Greiner Bio-one, Monroe, NC, USA) and incubated overnight at 37 °C in 5% CO2 […]. Compounds to be tested were solubilized in 100% dimethylsulfoxide (DMSO) at 10 mM and serially diluted in water and 10% DMSO to final concentration of 10 µM in 10% DMSO. Then 10 µL of each test dilution and 10 µL of 10% DMSO (for low and high control) were dispensed into the well of a new 96-well microplate (Greiner Bio-one). Medium was removed from the cell assay plate and 100 µL of Dulbecco’s Modified Eagle’s Medium DMEM solution (containing 1% penicillin, 1% streptomycin and 300 nM cortisone) added to each well. Cells were incubated for 2 h at 37 °C in 5% CO2 […]. Following incubation, medium was removed from each well into an Eppendorf containing 500 µL of ethyl acetate, mixed by vortex and incubated at r.t. for 5 min. A calibration curve of known concentrations of cortisol in assay medium was also set up and added to 500 µL of ethyl acetate, vortexed and incubated as above. The supernatant of each Eppendorf was removed to a 96-deep-well plate and dried down under […] at 65 °C. Each well was solubilized in 100 µL 70:30 H2O:acetonitrile (ACN) and removed to a 96-well V-bottomed plate for LC/MS analysis. Separation was carried out on a Sunfire 150 × 2.1 mm, […] column using a H2O:ACN gradient profile. Typical retention times were 2.71 min for cortisol and 2.80 min for cortisone. The peak area was calculated and the concentration of each compound determined from the calibration curve. Reported values are the average of 1–3 measurements.

human 11β-HSD2 = target: T2, human 11β-HSD2 (Homo sapiens, UniProt P80365); assay: Cellular 11β-HSD2 enzyme inhibition assay (HEK293 stably transfected); assay type: cell-based; details: HEK293, 10 µM, HEK293 transfected with human 11β-HSD2; read-out: HEK hHSD2 % inh at 10 µM
T2 construct: stably transfected with the full-length gene coding for human 11β-HSD2; expressed in transfected cells; host or cells: HEK293
T2 sequence (P80365 1-405): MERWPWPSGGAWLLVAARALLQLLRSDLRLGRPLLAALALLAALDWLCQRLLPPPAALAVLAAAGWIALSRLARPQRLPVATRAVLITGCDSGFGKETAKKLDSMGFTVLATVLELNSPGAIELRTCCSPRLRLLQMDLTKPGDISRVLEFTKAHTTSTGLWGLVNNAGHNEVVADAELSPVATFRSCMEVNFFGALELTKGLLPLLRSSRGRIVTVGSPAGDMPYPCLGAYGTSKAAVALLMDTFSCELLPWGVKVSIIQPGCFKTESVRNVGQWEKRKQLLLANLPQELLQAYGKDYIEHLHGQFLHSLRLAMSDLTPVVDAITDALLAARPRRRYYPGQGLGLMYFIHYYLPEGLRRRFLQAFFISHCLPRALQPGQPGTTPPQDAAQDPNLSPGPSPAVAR
Experimental: (§1) Selectivity over 11β-HSD2 was also assessed in a cell-based assay using the same methodology as before (HEK293 stably transfected with the 11β-HSD2 gene). […] Finally, metabolic stability was determined using HLM, which are widely used to predict the degree of primary metabolic clearance in the liver. Each compound was incubated over 30 min with HLM and the percentage of remaining compound after this incubation period was determined by calculating compound concentration after and before by LC/MS.
For measurement of inhibition of 11β-HSD2, HEK293 cells stably transfected with the full-length gene coding for human 11β-HSD2 were used. The protocol was the same as for the cellular 11β-HSD1 enzyme inhibition assay, only changing the substrate, this time cortisol, and the concentrations of the tested compounds, 10, 1, and 0.1 µM. Reported values are the average of 1–3 measurements.

[3] = Microsomal stability assay in human liver microsomes; assay type: in vitro ADME; details: remaining compound after 30-min incubation in HLM
Experimental: as §1
The microsomal stability of each compound was determined using human liver microsomes (HLM, Celsis In-vitro Technologies, Baltimore, MD, USA). Microsomes were thawed and diluted to a concentration of 2 mg/mL in 50 mM sodium phosphate buffer pH 7.4. Each compound was diluted in 4 mM NADPH (made in the phosphate buffer above) to a concentration of 10 µM. Two identical incubation plates were prepared to act as a 0 min and a 30 min time point assay. 30 µL of each compound dilution was added in duplicate to the wells of a U-bottom 96-well plate and warmed at 37 °C for approximately 5 min. Verapamil, lidocaine, and propranolol at 10 µM concentration were utilized as reference compounds in this experiment. Microsomes were also pre-warmed at 37 °C before the addition of 30 µL to each well of the plate resulting in a final concentration of 1 mg/mL. The reaction was terminated at the appropriate time point (0 or 30 min) by addition of 60 µL of ice-cold 0.3 M trichloroacetic acid (TCA) per well. The plates were centrifuged for 10 min at 112× g and the supernatant fraction transferred to a fresh U-bottom 96-well plate. Plates were sealed and frozen at −20 °C prior to MS analysis. LC-MS/MS was used to quantify the peak area response of each compound before and after incubation with HLM using MS tune settings established and validated for each compound. These peak intensity measurements were used to calculate the percentage remaining after incubation with HLM for each hit compound. Reported values are the average of 1–3 measurements.

[4] = 10 µM, human liver microsomes, relative to no inhibitor control

SMILES	inhibition at 10 µM (human 11β-HSD1 [1]; [4]) [%]	pIC50 (human 11β-HSD1 [1]; human liver microsomes)	inhibition at 10 µM (human 11β-HSD1 [2]) [%]	inhibition at 10 µM (human 11β-HSD2) [%]	HLM % Parent [3] [%]	melting point [°C]	hHSD1 % inh at 10 µM (human 11β-HSD1 [1]; [4]) [%]	HEK hHSD1 % inh at 10 µM (human 11β-HSD1 [2])	IC50 of positive control (human 11β-HSD1 [1]; positive control within each set of assays, normal range per ref 20)
O=C(c1ccccc1)N1CC2C3C=CC(C4CC34)C2C1 (stereo not shown) [Compound 4, (4-Azatetracyclo[5.3.2.0^2,6.0^8,10]dodec-11-en-4-yl)(phenyl)methanone]	100	6.26	77	84	85	65 to 66	–	–	–
O=C(c1ccccn1)N1CC2C3C=CC(C4CC34)C2C1 (stereo not shown) [Compound 5, (4-Azatetracyclo[5.3.2.0^2,6.0^8,10]dodec-11-en-4-yl)(pyridin-2-yl)methanone]	100	5.37	–	–	–	110 to 111	–	–	–
CC(C)(C)C(=O)N1CC2C3C=CC(C4CC34)C2C1 (stereo not shown) [Compound 6, (4-Azatetracyclo[5.3.2. 0^2,6.0^8,10]dodec-11-en-4-yl)(tert-butyl)methanone]	100	6.18	41	71	60	91 to 92	–	–	–
O=C(c1cccs1)N1CC2C3C=CC(C4CC34)C2C1 (stereo not shown) [Compound 7, (4-Azatetracyclo[5.3.2.0^2,6.0^8,10]dodec-11-en-4-yl)(thien-2-yl)methanone]	< 50	–	–	–	–	104 to 105	49	–	–
Nc1c(Cl)cc(C(=O)N2CC3C4C=CC(C5CC45)C3C2)cc1Cl (stereo not shown) [Compound 8, (4-Amino-3,5-dichlorophenyl)(4-azatetracyclo[5.3.2. 0^2,6.0^8,10]dodec-11-en-4-yl)methanone]	100	7.35	100	86	13	186 to 187	–	complete inhibition	–
O=C(C1CC=CCC1)N1CC2C3C=CC(C4CC34)C2C1 (stereo not shown) [Compound 9, (4-Azatetracyclo[5.3.2. 0^2,6.0^8,10]dodec-11-en-4-yl)(cyclohex-3-en-1-yl)methanone]	100	7.25	100	87	44	78 to 79	–	complete inhibition	–
O=C(c1ccc(Cl)nc1)N1CC2C3C=CC(C4CC34)C2C1 (stereo not shown) [Compound 10, (4-Azatetracyclo[5.3.2. 0^2,6.0^8,10]dodec-11-en-4-yl) (6-chloropyridin-3-yl)methanone]	–	–	–	–	–	101 to 102	–	–	–
O=C(c1ccnc(Cl)c1)N1CC2C3C=CC(C4CC34)C2C1 (stereo not shown) [Compound 11, (4-Azatetracyclo[5.3.2. 0^2,6.0^8,10]dodec-11-en-4-yl)(2-chloropyridin-4-yl)methanone]	–	–	–	–	–	135 to 136	–	–	–
CN1CCC(C(=O)N2CC3C4C=CC(C5CC45)C3C2)CC1 (stereo not shown) [Compound 12, (4-Azatetracyclo[5.3.2. 0^2,6.0^8,10]dodec-11-en-4-yl)(1-methylpiperidin-4-yl)methanone]	–	–	–	–	–	100 to 101	–	–	–
CC(=O)N1CCC(C(=O)N2CC3C4C=CC(C5CC45)C3C2)CC1 (stereo not shown) [Compound 13, 1-[[4-(4-Azatetracyclo[5.3.2. 0^2,6.0^8,10]dodec-11-en-4-yl)carbonyl]piperidin-1-yl]ethan-1-one]	–	–	–	–	–	134 to 135	–	–	–
O=C(c1ccc(N2CCN(c3ccccc3)CC2)nc1)N1CC2C3C=CC(C4CC34)C2C1 (stereo not shown) [Compound 14, (4-Azatetracyclo[5.3.2.0^2,6.0^8,10]dodec-11-en-4-yl)[6-(4-phenylpiperazin-1-yl)pyridin-3-yl]methanone]	100	5.26	–	–	–	90 to 91	–	–	–
O=C(c1ccc(N2CCN(c3ccc(C(F)(F)F)cc3)CC2)nc1)N1CC2C3C=CC(C4CC34)C2C1 (stereo not shown) [Compound 15, (4-Azatetracyclo[5.3.2.0^2,6.0^8,10]dodec-11-en-4-yl)[6-[4-(4-trifluoromethyl)phenylpiperazin-1-yl]pyridin-3-yl]methanone]	100	4.94	–	–	–	157 to 158	–	–	–
O=C(c1csc(-c2cn[nH]c2)c1)N1CCC(F)(c2ccccc2Cl)CC1 [UE2316, reference compound]	–	–	–	–	–	–	–	–	within the normal range
